Measured values: PMC12261219, “Comparative Evaluation of Thiol- and Amine-Conjugating Moieties for Endogenous Albumin Binding after Intravenous Administration” (ACS Pharmacology & Translational Science, 2025)
“And” between values parts separate entries of the source, which are not always exact repeats. Equal values may be shown once.

Tests used:
IgG = test: SEC-ICP-MS with single serum protein solution: IgG; type: binding, human; conditions: 200 μM IgG, 100 μM compound, 100 mM PB pH 7.4, 37 °C, 2 h
Protocol: (§1) All investigated proteins were purchased from commercial suppliers: Albumin (Sigma-Aldrich, A8763), IgG (Athens Research, 16–16–090707), α1-antitrypsin (Sigma-Aldrich, A6150) and apotransferrin (Sigma-Aldrich, T1147). […] The compound stocks were diluted into the protein solution to reach a final concentration of 100 μM (27 μL protein and 3 μL compound). The samples were incubated at 37 °C for 2 h and analyzed as described for the SEC-ICP-MS studies (Tables S6 and S7).

α1-antitrypsin = target: T1, α1-antitrypsin (Homo sapiens, UniProt P01009); test: SEC-ICP-MS with single serum protein solution: α1-antitrypsin; type: binding; conditions: 200 μM α1-antitrypsin, 100 μM compound, 100 mM PB pH 7.4, 37 °C, 2 h
T1 construct: purchased Sigma-Aldrich A6150
Protocol: as §1

[1] = Hydrolytic stability in buffer (HPLC); type: physicochemical; conditions: 0.5 mM
Protocol: The samples were incubated at 20 °C and measured over 25 h. Reversed phase high-performance liquid chromatography (RP-HPLC) runs were performed using a Waters Acquity UPLC BEH C18 column (130 Å, 1.7 μm, 3 mm × 50 mm) on a Dionex Thermo Scientific UltiMate 3000 HPLC system, equipped with a HPG-3400RS binary pump and a DAD-3000 UV–vis detector. Chromatograms were evaluated at a wavelength of 220 nm. Milli-Q water (mobile phase A) and acetonitrile (mobile phase B), both containing 0.1% TFA, were used as eluents. The flow rate was consistent at 0.6 mL/min for all measurements using the following gradient: 0–0.5 min A 95:5 B, 0.5–5.5 min linear gradient to A 5:95 B, 5.5–6.5 min A 5:95 B, 6.5–9.2 min A 95:5 B. The same conditions were applied for stability measurements in 100 mM PB at pH 5.5 and 6.5 as well as in 20 mM HEPES and MOPS at pH 7.4. RP-HPLC-MS analyses of the same samples after the stability measurements were conducted on a Waters Acquity UPLC BEH C18 column (130 Å, 1.7 μm, 3 mm × 50 mm) on an Agilent 1260 Infinity II system equipped with a Flexible pump, a 1260 VWD UV–vis detector and the LC–MSD system. Chromatograms were evaluated at a wavelength of 220 nm. Milli-Q water (mobile phase A) and acetonitrile (mobile phase B), both containing 0.1% formic acid, were used as eluents. The flow rate was consistent at 0.6 mL/min for all measurements using the following gradient: 0–0.5 min A 95:5 B, 0.5–6.0 min linear gradient to A 5:95 B, 6.0–7.0 min A 5:95 B, 7.0–7.1 min linear gradient to A 95:5 B, 7.1–8.0 min A 95:5 B.

[2] = Serum pharmacokinetics (platinum, ICP-MS) in CT26-bearing Balb/c mice; conditions: serum platinum
Protocol: CT26 cells (5 × 10^5 in 50 μL serum-free medium) were injected subcutaneously (s.c.) into the right flank of male Balb/c mice. […] The blood, tumor and organ collection followed the study design in Figure A. Briefly, to assess serum platinum levels, blood was collected after 5 min, 30 min, 5 h and 24 h (2 mice per time point) via the facial vein. The serum was separated by centrifugation (two times 10 min at 900 g) after 10 min clotting at room temperature. […] All collected samples were stored at −20 °C and further processed for platinum measurements via ICP-MS as follows: HNO3 (67–69%, suprapur for trace metal analysis, NORMATOM; Distributor: VWR international, Austria) and conc. H2O2 suprapur (Merck, 30%) were used without further purification. Digestion of tissue (approximately 15–30 mg gravimetrically weighted) was performed with 2 mL of approximately 20% HNO3 and 100 μL H2O2 using an open vessel graphite digestion system (coated graphite heating plate, coated sample holder-top for 25 mL vials, PFA vials and PFA lids; Labter, ODLAB; Distributor: AHF Analysentechnik AG; Germany). Digested samples were diluted in Milli-Q water (18.2 MΩ cm, Milli-Q Advantage, Darmstadt, Germany). For the ICP-MS analysis, platinum and rhenium standards were derived from CPI International (Amsterdam, The Netherlands). The total platinum content was determined with a quadrupole-based Agilent 7800 ICP-MS instrument (Agilent Technologies, Tokyo, Japan) equipped with the Agilent SPS 4 autosampler (Agilent Technologies, Tokyo, Japan) and a MicroMist nebulizer at a sample uptake rate of approximately 0.2 mL/min. An RF power of 1550 W was used as well as nickel cones. Argon was used as plasma gas (15 L/min) and as carrier gas (∼1.1 L/min). The dwell time was set to 0.1 s and the measurements were performed in 6 replicates with 100 sweeps. Rhenium served as internal standard for platinum. The Agilent MassHunter software package (Workstation Software, version C.01.04) was used for data processing.
As platinum was measured in serum, equimolar administered doses were adjusted to correspond to platinum (0.0227 mmol, 4.42 mg platinum). The area under the “concentration”–time curve (AUC) was determined from time 0 to infinity (AUCPt_0‑∞) and from time 0 to 24 h (AUCPt_0–24, based on the last observed sample at 24 h; linear-log trapezoidal calculation method). The terminal slope (λ z ) was determined based on the last two (out of four) measurements (times 5 h and 24 h).

albumin (mouse serum) = target: T2, albumin (mouse serum) (Mus musculus, UniProt P07724); test: SEC-ICP-MS albumin binding in mouse serum; type: in vitro ADME; conditions: 100 µM, 37 °C
T2 construct: The serum was separated by centrifugation (two times 10 min at 900 g) after 10–20 min clotting at room temperature; from tissue; host or cells: serum of Balb/c mice
Protocol: (§2) Blood of Bab/c mice was collected under anesthesia via heart puncture. […] Human serum was purchased from Sigma-Aldrich. In order to guarantee a stable pH, all sera were buffered with 150 mM phosphate to pH 7.4 by dissolving the necessary amounts of Na2HPO4 and NaH2PO4 directly in the serum. […] The samples were then incubated in the autosampler at 37 °C and analyzed every hour for 4 or 5 h and after 24 h. Between each sample a pure water blank was measured. For measurements with 10 min intervals the same procedure was followed, but the blank measurements were omitted. For SEC-ICP-MS measurements an Agilent 1260 Infinity system coupled to an Agilent 7800 ICP-HRMS equipped with a dynamic reaction cell was used. Oxygen (purity 5.5, Messer Austria GmbH, Gumpoldskirchen, Austria) was used as reaction gas.

albumin (human serum) = target: T3, albumin (human serum) (Homo sapiens, UniProt P02768); test: SEC-ICP-MS albumin binding in human serum; type: in vitro ADME; conditions: for Pt195 in HMWF (albumin-bound) / Pt195 in LMWF: 100 µM, 37 °C
T3 construct: Human serum was purchased from Sigma-Aldrich; tissue Sigma-Aldrich; host or cells: human serum
Protocol: as §2

albumin = target: T4, albumin (Homo sapiens, UniProt P02768); test: SEC-ICP-MS with single serum protein solution: albumin; type: binding; conditions: 200 μM albumin, 100 μM compound, 100 mM PB pH 7.4, 37 °C, 2 h
T4 construct: purchased Sigma-Aldrich A8763
Protocol: as §1

apotransferrin = target: T5, apotransferrin (Homo sapiens, UniProt P02787); test: SEC-ICP-MS with single serum protein solution: apotransferrin; type: binding; conditions: 200 μM apotransferrin, 100 μM compound, 100 mM PB pH 7.4, 37 °C, 2 h
T5 construct: purchased Sigma-Aldrich T1147
Protocol: as §1

[3] = pH 7.4, 10 min intervals, 0 min
[4] = pH 7.4, 10 min intervals, 10 min
[5] = pH 7.4, 10 min intervals, 20 min
[6] = pH 7.4, 10 min intervals, 30 min
[7] = pH 7.4, 10 min intervals, 40 min
[8] = pH 7.4, 10 min intervals, 50 min
[9] = pH 7.4, 10 min intervals, 60 min

T3 sequence (P02768 25-609): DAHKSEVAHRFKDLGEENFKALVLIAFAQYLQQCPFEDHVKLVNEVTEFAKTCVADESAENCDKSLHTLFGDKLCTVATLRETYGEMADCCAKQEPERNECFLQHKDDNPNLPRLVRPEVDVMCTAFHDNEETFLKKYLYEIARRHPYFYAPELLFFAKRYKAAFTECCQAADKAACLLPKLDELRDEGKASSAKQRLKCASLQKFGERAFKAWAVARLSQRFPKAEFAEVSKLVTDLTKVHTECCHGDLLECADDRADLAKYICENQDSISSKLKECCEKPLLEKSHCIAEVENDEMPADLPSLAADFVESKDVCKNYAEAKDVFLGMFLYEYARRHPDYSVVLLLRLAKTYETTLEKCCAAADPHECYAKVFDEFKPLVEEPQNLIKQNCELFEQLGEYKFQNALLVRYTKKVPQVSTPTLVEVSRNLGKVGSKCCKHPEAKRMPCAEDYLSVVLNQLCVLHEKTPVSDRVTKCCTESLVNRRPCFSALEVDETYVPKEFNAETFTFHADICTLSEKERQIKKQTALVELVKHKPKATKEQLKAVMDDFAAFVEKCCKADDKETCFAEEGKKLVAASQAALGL
T2 sequence (P07724 25-608): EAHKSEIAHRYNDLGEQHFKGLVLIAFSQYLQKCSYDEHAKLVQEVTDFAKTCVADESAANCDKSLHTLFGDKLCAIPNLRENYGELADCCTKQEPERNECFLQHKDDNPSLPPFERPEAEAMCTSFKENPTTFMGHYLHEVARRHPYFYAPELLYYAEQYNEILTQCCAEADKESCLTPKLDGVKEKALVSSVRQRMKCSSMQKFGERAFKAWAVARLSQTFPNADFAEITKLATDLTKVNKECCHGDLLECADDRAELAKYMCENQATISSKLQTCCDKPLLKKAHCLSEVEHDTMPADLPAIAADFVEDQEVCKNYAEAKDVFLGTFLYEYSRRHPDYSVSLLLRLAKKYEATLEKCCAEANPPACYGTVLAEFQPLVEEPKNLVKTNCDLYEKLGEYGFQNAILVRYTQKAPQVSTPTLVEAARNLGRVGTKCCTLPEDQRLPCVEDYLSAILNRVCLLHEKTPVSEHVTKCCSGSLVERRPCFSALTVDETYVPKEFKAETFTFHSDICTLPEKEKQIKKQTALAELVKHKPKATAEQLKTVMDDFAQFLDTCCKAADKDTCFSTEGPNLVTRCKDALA
T1 sequence (P01009 25-418): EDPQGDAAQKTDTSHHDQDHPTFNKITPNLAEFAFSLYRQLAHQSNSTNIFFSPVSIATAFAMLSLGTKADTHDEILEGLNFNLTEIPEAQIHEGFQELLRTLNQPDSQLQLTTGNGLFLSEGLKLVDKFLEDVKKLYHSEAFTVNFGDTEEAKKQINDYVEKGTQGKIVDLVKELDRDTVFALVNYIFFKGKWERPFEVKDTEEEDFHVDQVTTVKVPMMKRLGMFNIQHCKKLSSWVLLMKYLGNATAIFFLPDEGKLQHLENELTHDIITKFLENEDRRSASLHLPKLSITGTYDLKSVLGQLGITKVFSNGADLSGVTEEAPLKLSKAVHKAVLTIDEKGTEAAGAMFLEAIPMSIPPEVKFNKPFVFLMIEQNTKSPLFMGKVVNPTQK
T5 sequence (P02787 20-698): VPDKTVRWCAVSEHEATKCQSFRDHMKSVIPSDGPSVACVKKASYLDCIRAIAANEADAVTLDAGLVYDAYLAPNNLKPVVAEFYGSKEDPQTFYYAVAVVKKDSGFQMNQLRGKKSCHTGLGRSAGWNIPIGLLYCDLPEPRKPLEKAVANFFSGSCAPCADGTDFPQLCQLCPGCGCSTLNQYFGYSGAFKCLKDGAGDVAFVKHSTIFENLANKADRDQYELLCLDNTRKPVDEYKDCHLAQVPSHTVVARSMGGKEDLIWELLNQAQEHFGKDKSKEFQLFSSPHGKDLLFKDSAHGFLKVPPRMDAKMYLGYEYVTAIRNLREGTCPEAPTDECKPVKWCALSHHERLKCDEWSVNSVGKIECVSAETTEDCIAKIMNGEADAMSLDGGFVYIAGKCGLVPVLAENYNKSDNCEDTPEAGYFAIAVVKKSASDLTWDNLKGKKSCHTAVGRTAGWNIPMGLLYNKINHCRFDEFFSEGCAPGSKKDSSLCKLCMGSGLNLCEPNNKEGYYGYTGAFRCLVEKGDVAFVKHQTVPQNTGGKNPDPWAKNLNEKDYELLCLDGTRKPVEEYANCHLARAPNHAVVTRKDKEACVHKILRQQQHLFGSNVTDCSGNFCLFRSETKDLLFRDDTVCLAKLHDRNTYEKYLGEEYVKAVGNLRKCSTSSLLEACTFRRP
T4 sequence (P02768 25-609): as the sequence (P02768 25-609) above

CC(=O)[O][Pt-2]12([O]C(=O)NCCOCCOCCOCCOCCN3C(=O)C=CC3=O)([NH2+][C@@H]3CCCC[C@H]3[NH2+]1)[O]C(=O)C(=O)[O]2 [Mal-Ox-OAc, (OC-6–34)-Acetato[(1R,2R)-1,2-cyclohexane-1,2-diamino][ (14-(2,5-dioxo-2,5-dihydro-1H-pyrrol-1-yl)-3,6,9,12-tetraoxatetradecyl)-carbamato]-oxalato platinum(IV)]
Platinum in the HMWF (protein-bound) (IgG): less than 20%
Platinum in the HMWF (protein-bound) (α1-antitrypsin): ~30%
Intact compound after 25 h ([1]; 20 mM HEPES, pH 7.4, 20 °C): 56% and ~60%
Intact compound after 25 h ([1]; 20 mM MOPS, pH 7.4, 20 °C): 58% and ~60%
Intact compound after 25 h ([1]; 100 mM PB, pH 5.5, 20 °C): 96%
Intact compound after 25 h ([1]; 100 mM PB, pH 6.5, 20 °C): 80%
Intact compound after 25 h ([1]; 100 mM PB, pH 7.4, 20 °C): 23%
Cmax ([2]; measured at tmax=0.08 h, single i.v. dose 4.42 mg/kg Pt): 35.6 mg/kg
Percentage of AUCPt_0-∞ extrapolated from tlast to infinity ([2]; tlast=24 h): 27.7%
Half-life ([2]; terminal half-life, i.v.): 12.2 h
CL ([2]; total body clearance, single i.v. dose 4.42 mg/kg Pt): 0.00892 kg/h/kg
Vz ([2]; volume of distribution based on the terminal phase, i.v.): 0.157 kg/kg
Pt195 in HMWF (albumin-bound) (albumin (mouse serum); [3]): 36%
Pt195 in LMWF (albumin (mouse serum); [3]): 64%
Pt195 in HMWF (albumin-bound) (albumin (mouse serum); [4]): 58% and ~60%
Pt195 in LMWF (albumin (mouse serum); [4]): 42%
Pt195 in HMWF (albumin-bound) (albumin (mouse serum); [5]): 68%
Pt195 in LMWF (albumin (mouse serum); [5]): 32%
Pt195 in HMWF (albumin-bound) (albumin (mouse serum); [6]): 74%
Pt195 in LMWF (albumin (mouse serum); [6]): 26%
Pt195 in HMWF (albumin-bound) (albumin (mouse serum); [7]): 78%
Pt195 in LMWF (albumin (mouse serum); [7]): 22%
Pt195 in HMWF (albumin-bound) (albumin (mouse serum); [8]): 79%
Pt195 in LMWF (albumin (mouse serum); [8]): 21%
Pt195 in HMWF (albumin-bound) (albumin (mouse serum); [9]): 80%
Pt195 in LMWF (albumin (mouse serum); [9]): 20%
Pt195 in LMWF (albumin (mouse serum); pH 7.4, 1 h intervals, 0 h): 66%
Pt195 in HMWF (albumin-bound) (albumin (mouse serum); pH 7.4, 1 h intervals, 1 h): 75%
Pt195 in LMWF (albumin (mouse serum); pH 7.4, 1 h intervals, 1 h): 25%
Pt195 in HMWF (albumin-bound) (albumin (mouse serum); pH 7.4, 1 h intervals, 2 h): 74%
Pt195 in LMWF (albumin (mouse serum); pH 7.4, 1 h intervals, 2 h): 26%
Pt195 in HMWF (albumin-bound) (albumin (mouse serum); pH 7.4, 1 h intervals, 3 h): 74%
Pt195 in LMWF (albumin (mouse serum); pH 7.4, 1 h intervals, 3 h): 26%
Pt195 in HMWF (albumin-bound) (albumin (mouse serum); pH 7.4, 1 h intervals, 4 h): 74%
Pt195 in LMWF (albumin (mouse serum); pH 7.4, 1 h intervals, 4 h): 26%
Pt195 in HMWF (albumin-bound) (albumin (mouse serum); pH 7.4, 1 h intervals, 24 h): 75%
Pt195 in LMWF (albumin (mouse serum); pH 7.4, 1 h intervals, 24 h): 25%
Pt195 in HMWF (albumin-bound) (albumin (human serum); pH 7.4, 0 h): 29%
Pt195 in LMWF (albumin (human serum); pH 7.4, 0 h): 71%
Pt195 in HMWF (albumin-bound) (albumin (human serum); pH 7.4, 1 h): 94% and ~90%
Pt195 in LMWF (albumin (human serum); pH 7.4, 1 h): 6%
Pt195 in HMWF (albumin-bound) (albumin (human serum); pH 7.4, 2 h): 94%
Pt195 in LMWF (albumin (human serum); pH 7.4, 2 h): 6%
Pt195 in HMWF (albumin-bound) (albumin (human serum); pH 7.4, 3 h): 94%
Pt195 in LMWF (albumin (human serum); pH 7.4, 3 h): 6%
Pt195 in HMWF (albumin-bound) (albumin (human serum); pH 7.4, 4 h): 94%
Pt195 in LMWF (albumin (human serum); pH 7.4, 4 h): 6%
Pt195 in HMWF (albumin-bound) (albumin (human serum); pH 7.4, 5 h): 94%
Pt195 in LMWF (albumin (human serum); pH 7.4, 5 h): 6%
Pt195 in HMWF (albumin-bound) (albumin (human serum); pH 7.4, 24 h): 93%
Pt195 in LMWF (albumin (human serum); pH 7.4, 24 h): 7%
Bound to albumin (albumin (human serum); from 1 to 24 h): ~90%
Platinum in the HMWF (protein-bound) (albumin): 75%
Platinum in the HMWF (protein-bound) (apotransferrin): less than 10%
